From patent publication US4794116A, “Anti-allergic esters, acetal ethers, thioethers and nitrogen substituted derivatives of bicyclic compounds” (Schering Corporation, priority 1986, dated 1988)

How the values were obtained:
[1] = test system: anaphylactic bronchospasm; test: inhibition of anaphylactic bronchospasm in sensitized guinea pigs having antigen induced broncho-constriction; type: in vivo, guinea pig (male Hartley); conditions: for % Inhibition After 8 hr (peak increase in intratracheal pressure): 8 hours before ovalbumin challenge
Procedure: The anti-allergy method of this invention is identified by tests which measure a compound's inhibition of anaphylactic bronchospam in sensitized guinea pigs having antigen induced broncho-constriction.
In one such test procedure, male Hartley guinea pigs (250-300 g) are sensitized with 5 mg ovalbumin injected i.p. and 5 mg injected s.c. in 1 ml saline on day 1 and 5 mg ovalbumin injected i.p. on day 4. The sensitized animals are used 3-4 weeks later at which time they weigh 450-500 g.
The sensitized guinea pigs are fasted overnight and the following morning are anesthetized with 0.9 ml/kg i.p. of dialurethane (0.1 g/m diallybarbituric acid, 0.4 g/ml ethylurea and 0.4 g/ml urethane). The trachea are cannulated and the animals are ventilated by a Harvard rodent respirator at 50 strokes/minute with a stroke volume of 5 ml. A side arm to the tracheal cannula is connected to a Harvard pressure transducer to obtain a continuous measure of intratracheal pressure which is recorded on a Harvard polygraph. The jugular vein is cannulated for the i.v. administration of substances. The animals are challenged with antigen (0.5% ovalbumin) as an aerosol generated from a DeVilbiss Model 65 ultrasonic nebulizer and delivered through the tracheal cannula for 30 seconds. Bronchoconstriction is measured as the peak increase in intratracheal pressure occuring within 5 minutes after antigen challenge.
The sensitized guinea pigs are injected i.v. with 1 mg/kg propranolol, 5 mg/kg indomethacin and 2 mg/kg mepyramine given together in a volume of 1 ml/kg. Fifteen minutes later the animals are challenged with nebulized ovalbumin. Test compounds are administered orally 2 or 8 hours before challenge with ovalbumin. Suppression of anaphylactic bronchospasm is expressed as a percent inhibition of the peak increase in intratracheal pressure by comparison to a vehicle-treated control group.
*This measurement was made in a 21/2 day multipledosing regimen version o

paw edema = test: Reversed Passive Arthus Response (RPAR) Paw; type: in vivo, rat (male Lewis); conditions: oral dose of 25 mg/kg; for inhibited the paw edema at 2 hours: 2 hours post-challenge; for inhibited the paw edema at 4 hours: 4 hours post-challenge
Procedure: Reversed Passive Arthus Response (RPAR) PAW Animals, Materials and Methods
Male Lewis inbred albino rats weighing 180-200 grams obtained from Charles River Breeding Laboratories are used in these experiments. The rats are housed 3 animals/cage and food and water are allowed ad libitum. The animals are numbered 1-3 in each cage and color marked for identification purposes.
CL Drug and Reagent Preparation
All reagents and drugs are prepared just prior to the study. Crystallized and lyophilized bovine serum albumin (BSA), available from Sigma Chemical Company, is solubilized without shaking in cold, sterile, pyrogen-free saline (10 mg/ml). Lyophilized anti-bovine serum albumin (IgG fraction), obtained from Cappel Laboratories, is suspended in sterile distilled water and diluted with cold, pyrogen-free saline (PFS) just prior to use. The final concentration of anti-bovine serum albumin is 0.5 mg/ml of PFS. Both BSA and anti-BSA solutions are iced during use. Drugs are suspended or solubilized in an aqueous solution of methyl cellulose (MC) with an homogenizer just prior to administration.
Drug Administration and Induction of Inflammation
Groups of animals (6/group) are dosed with drug in MC by gavage once daily for 3 days. The last dose is administered one hour prior to sensitization with BSA. Controls are given MC alone and a drug-standard is usually included in each assay for verification purposes. Drugs are prepared and diluted so as to provide a dose for a 200 gram animal which is equivalent to the mg/kg dose for each experiment. Thus each rat receives an oral dose in a volume of approximately 2.0 cc. One hour after the last dose the animals are lightly anesthetized with ether and "sensitized" by injection of 0.2 ml of PFS containing 1.0 mg of BSA into the penile vein. One hour later, the animals are "challenged" in the right rear paw with subplantar injections of 0.2 ml of PFS containing 0.1 mg of anti-BSA. Immediately after the subplantar injection, the right paw is dipped (up to the lateral maleolus) into the mercury well of a plethysmograph. The volume of mercury displaced is converted to weight and recorded. This value is considered to be the control reading for the animal. Paw volumes are subsequently recorded with a plethysmograph during the development of the inflammation at 2 and 4 hours post-challenge.
Results are expressed by the change in paw volume (Δpaw volume) from the control reading for each animal to that recorded 2 and 4 hours post-challenge. All drug treated groups are compared to the MC control for significant differences with an analysis of variance. Differences from control in drug-treated groups are expressed as percent change from control. […]

[2] = 5 mg/kg p.o., 2 hours before ovalbumin challenge

| SMILES | % Inhibition After 2 hr (peak increase in intratracheal pressure) [1, 2] [%] | % Inhibition After 8 hr (peak increase in intratracheal pressure) ([1]; 5 mg/kg p.o.) [%] | % Inhibition After 2 hr (peak increase in intratracheal pressure) ([1]; 10 mg/kg p.o., 2 1/2 day multiple-dosing regimen version of the assay) [%] | inhibited the paw edema at 2 hours (paw edema) [%] | inhibited the paw edema at 4 hours (paw edema) [%] |
| --- | --- | --- | --- | --- | --- |
| Cc1ccc(C(=O)Oc2c(N3CCCC3)c(=O)n(-c3ccccc3)c3ncccc23)cc1 [Example 1, 4-(4-methylbenzoyloxy)-1-phenyl-3(1-pyrrolidinyl)-1,8-naphthyridin-2(1H)-one] | 30 | 0 |  |  |  |
| CC(=O)Oc1c(N2CCCC2)c(=O)n(-c2ccccc2)c2ncccc12 [Example 2, 4-acetyloxy-1-phenyl-3-(1-pyrrolidinyl)-1,8-naphthyridin-2(1H)-one] |  |  | 87 |  |  |
| CC(C)(C)C(=O)Oc1c(N2CCCC2)c(=O)n(-c2ccccc2)c2ncccc12 [Example 3, 4-(2,2-dimethylpropionyloxy)-1-phenyl-3-(1-pyrrolidinyl)-1,8-naphthyridin-2(1H)-one] | 48 | 49 |  | 28 | 5 |
| CCN(CC)C(=O)Oc1c(N2CCCC2)c(=O)n(-c2ccccc2)c2ncccc12 [Example 4, 4-(N,N-diethylcarbamoyloxy)-1-phenyl-3-(1-pyrrolidinyl)-1,8-naphthyridin-2(1H)-one] | 48 | 32 |  | 54 | 17 |
